This is an account of results in publication PMC9718554, “Discovery of a fragment hit compound targeting D-Ala:D-Ala ligase of bacterial peptidoglycan biosynthesis” (Journal of Enzyme Inhibition and Medicinal Chemistry, 2022).

In data set [1] the target is T1, E. coli DdlB enzyme (D-alanine:D-alanine ligase) (Escherichia coli, UniProt P07862).
T1 construct: made in house; host or cells: E. coli
The data set can be described thus: biochemical. The note with it: for IC50: 700 μM D-Ala, 100 μM ATP, read-out: DdlB inhibition IC50; for remaining activity at 5000 µM: at 5 mM; for remaining activity at 2100 µM: tested concentration 2.1 mM; for remaining activity at 1700 µM: tested concentration 1.7 mM; for remaining activity at 2000 µM: tested concentration 2.0 mM.

Data set [2] has as its target E. coli MurA enzyme (UDP-N-acetylglucosamine enolpyruvyl transferase) (Escherichia coli, UniProt P0A749). As to the kind of experiment: MurA inhibition assay (malachite green, deselection). To be noted: read-out: MurA inhibition, RA (Residual Activity).
Protocol: Inhibition of the enzyme was determined using an end-point malachite green assay by detecting the orthophosphate formed during the enzymatic reaction. […] The final DMSO concentration was 5%. […] A parallel experiment without the enzyme was performed to detect insoluble compounds under the assay conditions and subtracted from each measurement. All experiments were performed in duplicates. RAs were calculated with respect to blank experiments without tested compounds and with 5% DMSO.
For a further data set, the system named is E. coli N43. The data set can be described thus: MIC by broth microdilution. The class given is cell-based. To be noted: Escherichia coli, N43, 20 h. As to the method: (§1) The antibacterial activities of 3 were determined according to the European Committee for […] Susceptibility Testing recommendations and Clinical Laboratory Standards Institute protocol. Compound was tested against reference strains of E. coli and Staphylococcus aureus and against two mutant E. coli strains. E. coli D22 bears a mutation in the LpxC gene that increases membrane permeability, whereas E. coli N43 is an AcrA knockout strain (knockout of the cell membrane pump). […] The most plausible reason is the low on target activity of the hit fragment, however, also the poor penetration into the bacterial cell or efflux pumps effect cannot be ruled out. Although the lack of antibacterial activity is a limitation, hit compound 3 represents a fragment-sized starting point for the development of new compounds with increased DdlB inhibitory potency as well as antibacterial activity.
(§2) Minimum inhibitory concentrations (MICs) for 3 were determined by broth microdilution in Cation-adjusted Mueller-Hinton broth (MH) with TES, TREK Diagnostic Systems Ltd. against S. aureus ATCC 29213, E. coli ATCC 25922, E. coli N43 and E. coli D22. All of the experiments were performed in duplicate in 96-well plate format according to CLSI guidelines and European Committee for Antimicrobial Susceptibility Testing recommendations. The bacterial suspension of a specific bacterial strain was diluted with MH broth to obtain a final inoculum of 5 × 10^5 CFU/mL in the assay. Compound 3 dissolved in DMSO and inoculum were mixed together and incubated for 20 h at 35 °C. After incubation, the minimal inhibitory concentration (MIC) values were determined by visual inspection as the lowest dilution of compounds showing no turbidity. The MICs were determined against S. aureus (ATCC 29213), E. coli (ATCC 25922), E. coli N43, and E. coli D22 bacterial strains. D-Cycloserine was used as a positive control.
In general terms: Dilution methods test growth across graded concentrations, often in twofold steps.

The test system of another data set is E. coli D22. The data set can be described thus: MIC by broth microdilution. The class given is cell-based. To be noted: Escherichia coli, D22, 20 h. As to the method: as §1, §2
The subject of a further data set is E. coli ATCC 25922. As to the kind of experiment: MIC by broth microdilution. The class given is cell-based. The note with it: for MIC: Escherichia coli. As to the method: as §1, §2
In another data set the test system is S. aureus ATCC 29213. The data set can be described thus: MIC by broth microdilution. Type of data set: cell-based. The note with it: for MIC: Staphylococcus aureus. As to the method:
as §1, §2

The nature of data set [3]: Solubility at tested concentrations in fragment library screening. The class given is physicochemical. The source says: Supplement IENZ_A_2149745_SM2502.zip/DDlB_CDR05_SI_20221103.xlsx, sheet "Fragment library screening" | column: Solubility at tested concentrations
A further data set addresses DdlB (Escherichia coli, UniProt P07862). As to the kind of experiment: Surface plasmon resonance, immobilised DdlB. Type of data set: binding, E. coli. To be noted: steady-state affinity model, three titrations, 25 °C; read-out: apparent equilibrium dissociation constant KD. As to the method: Figure 2. Fragment hit 3 targeting DdlB. (A) Dose–response inhibition of DdlB for 3. (B) SPR analysis of 3 with the immobilised DdlB. 3 was injected across DdlB in serial dilutions ranging from 78.125 to 5000 µM for 40 s at a flow rate of 30 μL/min, and dissociation was followed for 40 s. […] (C) Data were fitted to the steady-state affinity model to obtain the apparent equilibrium dissociation constant (KD). KD values are the mean ± standard deviation of three titrations. (D) ATP (blue sticks) and D-Ala-D-Ala (white sticks) binding sites of DdlB (PDB ID: 4C5C) with the co-crystallised ligands. (E) Computational docking of 3 to the ATP-binding site using extra-precision Glide (blue sticks) and QM-Polarized Ligand Docking (orange sticks) (PDB ID: 4C5C).
Binding of 3 to DdlB was confirmed by an orthogonal biophysical assay, surface plasmon resonance (SPR). […]
The SPR measurements were performed at the Infrastructural Centre for Analysis of Molecular Interactions at the Department of Biology, University of Ljubljana on a Biacore T200 (GE Healthcare) at 25 °C. […] The data were analysed with the Biacore T200 Evaluation Software and KD was determined by fitting the data to the steady state affinity model. The average KDs and standard deviations were determined from three titrations of 3.
For orientation: Surface plasmon resonance follows binding to a sensor surface in real time, without labels.

For another data set, the target named is T2, DdlB from E. coli (Escherichia coli, UniProt P07862).
T2 construct: made in house; host or cells: E. coli
As to the kind of experiment: Steady-state kinetics, Ki determination against DdlB (ATP varied). The class given is biochemical. As to the method: Binding of 3 to DdlB was confirmed by an orthogonal biophysical assay, surface plasmon resonance (SPR). The protein was covalently attached to the surface of the CM5 chip (∼7700 response units), and the ligand was titrated across the surface (Figure 2(B)). […] Steady-state kinetics were performed to gain mechanistic insight into the inhibition of compound 3 (Supplementary Figure S3 and Table S6).
For compound 3, Ki values were determined against DdlB from E. coli. Ki determinations were performed under similar conditions as described for DdlB inhibition assay, where different concentration of one substrate and fixed concentration of the other were used. The concentration of ATP (50, 100, 200, 300 and 500 µM) was varied at fixed concentration of D-Ala (700 µM). The concentrations of compound 3 were 0, 25, 50, 100, 250, 500, and 1000 µM. After 20 min of incubation, […] of Biomol® green reagent was added, and absorbance was read at 650 nm after 5 min. Initial data were fitted to competitive, (v/V = [S]/{KM(1 + [I]/KI)+ [S]}), non-competitive (v/V = [S]/{(1 + [I]/KI)(KM+ [S])}), uncompetitive (v/V = [S]/{KM+ [S](1 + [I]/KI)}) inhibition models in which v is observed reaction rate, V is the maximum rate, KM is the Michaelis constant, using SigmaPlot 12.0 software. The best fit was taken as the one having the highest R^2, the lowest standard error and the narrowest 95% confidence interval in each parameter (see Supplementary Table S6).

Setting [4] is: read-out: DdlB inhibition, RA (Residual Activity).
Where [5] appears, read: residual activity, read-out: DdlB RA.

Values after ≈ are worked out from the molar mass of the structure shown. Where two headings read alike, the source gives them in different places. Some results are limits rather than exact numbers.

Sequence of E. coli MurA enzyme (UDP-N-acetylglucosamine enolpyruvyl transferase) (P0A749 whole entry): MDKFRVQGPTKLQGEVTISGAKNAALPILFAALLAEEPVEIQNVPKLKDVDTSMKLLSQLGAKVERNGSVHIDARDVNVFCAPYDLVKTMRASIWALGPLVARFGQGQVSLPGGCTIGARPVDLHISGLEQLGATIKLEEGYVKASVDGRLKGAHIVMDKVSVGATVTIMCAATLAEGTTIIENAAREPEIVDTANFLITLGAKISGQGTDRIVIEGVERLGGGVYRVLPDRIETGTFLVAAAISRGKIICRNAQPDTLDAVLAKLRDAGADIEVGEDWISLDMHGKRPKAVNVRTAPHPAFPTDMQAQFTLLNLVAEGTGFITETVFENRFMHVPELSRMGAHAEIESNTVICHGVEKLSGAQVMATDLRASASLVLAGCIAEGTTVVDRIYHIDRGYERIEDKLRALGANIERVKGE

The term IC50 denotes the concentration that gives 50% inhibition. With `COc1ccc(-n2c(C)ccc2C)nc1` [Compound 4], in [1], the IC50 was 1790 µM. The remaining activity at 5000 µM in [2] turned out to be 39%.
With `Cc1noc(C)c1C(=O)NCC1Cn2cccc2CN1C` (stereo not shown) [Compound 5], the remaining activity at 2500 µM in data set [1] (at 2.5 mM, read-out: DdlB inhibition, RA (Residual Activity)) was 28%. For the same compound, the remaining activity at 5000 µM in data set [2] stood at 6%.
By MIC is commonly meant the lowest concentration found to suppress growth. `N[C@@H]1CON=C1O` [D-Cyclo-serine, D-Cycloserine, reference compound]: the half-inhibitory concentration (IC50) in [1] is 108 µM. Also, the MIC against E. coli N43 stood at 32 µg/mL (≈ 313 µM); with E. coli D22 it was 16 µg/mL (≈ 157 µM); in the data set on E. coli ATCC 25922 (ATCC25922, E. coli ATCC 25922, 20 h at 35 °C, read-out: MIC) it was 64 µg/mL (≈ 627 µM); in the data set on S. aureus ATCC 29213 (ATCC29213, S. aureus ATCC 29213, 20 h at 35 °C, read-out: MIC) it was 32 µg/mL (≈ 313 µM).
As to `CCOc1ccc2c(n1)CCN(C(=O)c1ccccn1)C2` [Compound 6, (2-Ethoxy-7,8-dihydro-1,6-naphthyridin-6(5H)-yl)(pyridin-2-yl)methanone], the values for the remaining activity at 5000 µM in data set [1] (setting [4]) and in data set [2] were 25% and 104%, respectively. Besides, in data set [1] (setting [5]), the remaining activity at 2100 µM stood at 44%.
As for `Nc1ccc2ncc(C(=O)O)c(O)c2c1` [Compound 7, 6-Amino-4-hydroxyquinoline-3-carboxylic acid], the remaining activity at 5000 µM in [1] (setting [4]) was 47%; in data set [2], 81%.
The matching figures for `COCc1cn(C2CNC2)nn1` [Compound 8]: 95% and 100%.
Regarding `O=C(Nc1ccccc1F)NC1COc2ccccc2C1` (stereo not shown) [Compound G765-0058], the remaining activity at 1700 µM in [1] (setting [5]) was 93%. In data set [3] (tested concentration 1.7 mM), the “Solubility at tested concentrations” value is on record as “not soluble”.
In the case of `O=S(=O)(c1ccccc1)N1CCOc2ccccc21` [Compound Z606-0391], in [1] (setting [5]), the remaining activity at 2000 µM stood at 97%. For the same compound, the “Solubility at tested concentrations” value in [3] (tested concentration 2.0 mM) was “not soluble”.
In the case of `Cc1ccc(S(=O)(=O)N(C)CC2CCOC2)c(C)c1` (stereo not shown) [Compound S213-1641], in [1] (setting [5]), the remaining activity at 2100 µM was found to be 110%. Also, the “Solubility at tested concentrations” value in [3] (tested concentration 2.1 mM) was “not soluble”.
A word on the Ki: it is the dissociation constant of the complex between target and ligand, obtained from inhibition or displacement. As for `Cc1cccc(-c2ccnc3c(C(=O)O)cnn23)c1` [Compound 3, 7-(m-Tolyl)pyrazolo[1,5-a]pyrimidine-3-carboxylic acid], in data set [1], the concentration for half-maximal inhibition (IC50) was found to be 168 µM. For the same compound, the Kd at DdlB is 3200 µM. In addition, the minimum inhibitory concentration (MIC) in the data set on E. coli N43 is over 128 µg/mL; in the data set on E. coli D22, over 128 µg/mL; against E. coli ATCC 25922 (ATCC25922, 20 h), over 128 µg/mL; against S. aureus ATCC 29213 (ATCC29213, 20 h), over 128 µg/mL. Besides, the “antibacterial activity (in words)” value in the data set on E. coli ATCC 25922 (E. coli) and in the data set on S. aureus ATCC 29213 (S. aureus) was “no antibacterial activity” each time. Besides, the Ki on DdlB from E. coli (Competitive (full) model, best fit, ATP varied, D-Ala 700 µM) turned out to be 20.7 ± 4.5 µM; on DdlB from E. coli (Competitive (partial) model), 20.7 ± 5.2 µM; on DdlB from E. coli (Noncompetitive (full) model), 221 ± 21.7 µM. Moreover, at DdlB from E. coli (with respect to ATP), the inhibition mechanism entry is recorded as “competitive inhibitor with respect to ATP”. Also, the remaining activity at 5000 µM in [2] was determined as 64%.
On to `CC1c2cccn2CCN1C(=O)Nc1ccccc1Cl` (stereo not shown) [Compound G551-0008], for which the remaining activity at 1700 µM in data set [1] (setting [5]) amounted to 112%. The “Solubility at tested concentrations” value in [3] (tested concentration 1.7 mM) is recorded as “not soluble”.
For `Cc1ccccc1S(=O)(=O)Nc1cnc2c(c1)CCC2` [Compound T157-0058], in data set [1] (setting [5]), the remaining activity at 2100 µM is 48%. In addition, in data set [3] (tested concentration 2.1 mM), the “Solubility at tested concentrations” value was “not soluble”.
For `O=C(NCCc1ccco1)C1COc2ccccc2C1` (stereo not shown) [Compound G668-0290], the remaining activity at 2200 µM in data set [1] (residual activity, tested concentration 2.2 mM, read-out: DdlB RA) was 70%. Also, in data set [3] (tested concentration 2.2 mM), the “Solubility at tested concentrations” value is given as “not soluble”.
In the case of `CN(C(=O)c1cc[nH]n1)C1CC(C)(C)N(C)C(C)(C)C1` [Compound 8013-1135], the remaining activity at 2000 µM in data set [1] (setting [5]) is -1.26%. Moreover, the “Solubility at tested concentrations” value in [3] (tested concentration 2.0 mM) is given as “not soluble”.
Regarding `CN1CCN(S(=O)(=O)c2cccc3cccnc23)CC1` [Compound 8006-7667], the remaining activity at 2100 µM in [1] (setting [5]) amounted to 60%. Moreover, the “Solubility at tested concentrations” value in [3] (tested concentration 2.1 mM) is “not soluble”.
Turning to `CCc1ccc(C2Nc3ccccc3S(=O)(=O)N2)cc1` (stereo not shown) [Compound F475-0262], the remaining activity at 2100 µM in data set [1] (setting [5]) came out at 68%. The “Solubility at tested concentrations” value in data set [3] (tested concentration 2.1 mM) is “not soluble”.
As to `O=C(O)c1cnc2ccc(OC(F)(F)F)cc2c1O` [Compound Y042-3162], the remaining activity at 1800 µM in data set [1] (fragment library screening, tested concentration 1.8 mM, read-out: DdlB RA) was -5%. For the same compound, the “Solubility at tested concentrations” value in data set [3] (tested concentration 1.8 mM) is listed as “not soluble”.
